Several values for one entry are separate records, joined by “and”; a condition that tells them apart may be missing. Identical values can stand only once.
Experiments:
[1] = tested on: Strep. thermophilus cells; assay: Visual antibiotic assay in milk with lyophilized bacteria subjected to osmotic changes (MTT colour); assay type: cell-based, Streptococcus thermophilus (ATCC 14485)
Protocol: Keep cold until use. • (b) To each 1 mL milk specimen or controls add 0.053 gr glucose and 0.1 mL of rehydrated bacterial suspension obtained in (a) above. Mix and incubate at 42°C for 25 min. • (c) Add 2 mL of a chromogenic mixture, containing 0.5 % glucose and 0.175 mg/mL MTT in water to each of the specimens and controls. Mix and incubate for 5 min at 42°C. • (d) Visually examine the color of each specimen and compare it to the color of the control. A color density lower than the color of the control indicates antibiotic activity in the specimen. Table 5 below summarizes the sensitivity of the visual assay for various antibiotic drugs, added to antibiotic free milk specimens.

[2] = tested on: Strep. thermophilus cells; assay: Detection of Penicillin G in milk by inhibition of MTT reduction in Strep. thermophilus cells, butanol extraction, OD 570 nm; assay type: cell-based, Streptococcus thermophilus (ATCC 14485)
Protocol: • (a) Streak Streptococcus thermophilus (ATCC 14485) suspension on solid medium, comprising 10 % Difco skim milk, 0,5 % Difco yeast extract, 2 % Agar in distilled water. Distinct colonies should emerge after overnight incubation at 42°C. • (b) Suspended a colony in 10 mL of a liquid medium, comprising 10 % Difco skim milk and 0.5 % Difco yeast extract in water (medium A). Incubate the suspension overnight at 42°C in 12 mL plastic, disposable centrifuge test tubes. • (c) Dilute the resultant suspension 1:10 into medium A and incubate at 42°C until the pH of the medium drops to 5.0 (about 2hrs). The resulting viable cell concentration is 1-2x10⁸/1mL. • (d) Cell concentration can be increased by adding 1N NaOH solution until the pH is raised to 6.2, and continuing incubation at 42°C until the pH drops again to 5.0. This cycle can be repeated 5-7 times until the culture becomes stationary at 1-2x10⁹ cells/mL. • (e) Adjust cell concentration to 1 x 10⁸ cells mL and store at 6-10°C for up to 24 hrs for use in antibiotic assay. Alternatively, distribute 2 mL aliquots of the suspension into 12 mL Penicillin vials (24 x 45 mm), freeze in liquid nitrogen and dry on refrigerated shelves of a stoppering, programmable lyophilizer, employing a 48-72 hour program.
• (a) Add 2 mL of distilled water to each vial of dried Strep. thermophilus cells, prepared as described in Example 1. Freshly grown Strep. thermophilus at 1x10⁸ cells/mL are used without any treatment. • (b) Construct reaction mixtures for the detection of antibiotic activity in milk specimens from 0.4 mL cell suspension (fresh or rehydrated lyophilized), 1.6 mL milk specimen, 0.05 mL 10 % Difco Yeast Extract and 0.05 mL 10 % Difco Tryptose. Include at least one control milk specimen, known not to contain any antibiotic drug, whenever the Antibiotic assay is employed. • (c) Incube the complete antibiotic exposure mixtures of the control and unknown milk specimens for 25 minutes at 42°C. • (d) Upon completion of the incubation mix 0.4 mL aliquots of all reaction mixtures with 1.6 mL of 0.5 % glucose, 0.175 mg/mL MTT (3-[4,5-Dimethylthiazol-2-yl]-2.5 diphenyltetrazolium bromide) in water, and incubate for 5 minutes. The amount of color resulting from MTT reduction can be estimated by one of the methods detailed in Example 3.
Transfer a 0.75 mL aliquot of the reaction mixture to a 2 mL microcentrifuge test tube. Add 0.75 mL 1-Butanol. Agitate on a vortex mixer for 15 seconds. Centrifuge the suspension at 10,000 x g for 2.5 minutes. Transfer 0.6 mL the upper clear, colored phase to a clean microcentrifuge test tube, containing 0.6 mL 1-Butanol. Agitate on a vortex mixer for 15 seconds. Centrifuge the suspension at 10,000 x g for 2.5 minutes. Transfer 1 mL the upper clear, colored phase to a clean cuvette. Determine the color density at 570 nm.
Milk specimens containing 3.5 or 7 mIU/mL of Penicillin G were tested with lyophilized Strep. thermophilus organisms, as described in Example 2. Color development for each antibiotic concentration was carried out either with the MTT solution as described in section (d) of Example 2, which is hypotonic or with the same solution, made isotonic by the addition of sucrose to 0.3M final concentration.
The amount of MTT color produced was determined by measuring the optical density of butanol extract made from the reaction mixtures (example 3 (d)).
Milk specimens containing 1-14 mIU:mL Penicillin G, were tested as described in Example 2 for lyophilized bacteria.
Milk specimens, containing 7 mIU/mL of Penicillin G were tested as described in Example 2 for lyophilized Strep. thermophilus cultivated to high density by pH adjustments. Incubation times of the milk specimens with the indicator bacteria varied between 10 and 25 minutes. Incubation with the MTT solution varied between 5 and 10 minutes. The amount of MTT color produced was determined by measuring the optical density of butanol extract made from the reaction mixtures (example 3 (d)). […]

[3] = tested on: B. stearothermophilus ATCC 10149; assay: Detection of Penicillin G in milk with B. stearothermophilus cells (MTT reduction); assay type: cell-based, Bacillus stearothermophilus; settings: 30 min at 55°C + 10 min MTT
Protocol: The whole reaction mixture is filtered through glass filter paper circles (e.g. Whatman GF/F, 2.5 cm diameter). The color can be estimated visually or measured by a reflecting densitometer, such as Gretag D182 (Gretag Ltd., CH-8105 Regensdorf, Switzerland). • (a) Inoculate B. stearothermophilus ATCC 10149 into a liquid medium constructed from 10 % Difco skim milk and 0.5 % Difco yeast extract in water. Incubate at 55°C with constant (shaking) for 18 hrs. • (b) Dilute the overnight culture 1:20 into fresh liquid medium and continue shaking at 55°C for 2 hrs. • (c) Dilute 1:10 into liquid medium fortified with 0.8M sucrose and continue shaking at 55°C for 2.5 hrs. […] Use immediately or keep on ice until ready to continue. • (d) Mix each Penicillin containing milk specimen with an equal volume of B. stearothermophilus suspension, as obtained in Step (c). Shake for 30 minutes at 55°C. • (e) Add MTT solution, as described in Example 2 (d) and continue shaking for 10 minutes at 55°C. • (f) Determine the amount of MTT dye as described in Example 3(b).

[4] = tested on: B. stearothermophilus (ATCC 10149) cells; assay: Inhibition of MTT colour formation in B. stearothermophilus after pre-incubation in isotonic or hypertonic medium (Tryptic Soy broth); assay type: cell-based, Bacillus stearothermophilus; settings: specimen containing 40 mIU/mL Penicillin G
Protocol: Logarithmic B. stearothermophilus (ATCC 10149) cells were suspended in Difco Tryptic Soy broth with or without 0.8M sucrose, and incubated at 55°C with shaking for 1 hr. […] Control reaction mixture was constructed with bacterial suspension and Tryptic Soy broth. Following a 30 min incubation at 55°C, all reaction mixtures were diluted 1:5 into […] MTT, 0.5 glucose in water and incubation continued for 5 minutes. The color suspension was clarified by vigorously mixing 0.5 mL aliquots with 0.7 mL isoamyl alcohol containing 0.04N hydrochloric acid. The optical density of the clarified mixtures was measured at 570 nm and the inhibition of color formation, relative to the control was calculated and is presented in Table 7.

[5] = tested on: Strep. thermophilus cells; assay: Detection of Penicillin G in milk by inhibition of MTT reduction in Strep. thermophilus cells, butanol extraction, OD 570 nm; assay type: cell-based, Streptococcus thermophilus (ATCC 14485); settings: isotonic MTT solution (0.3M sucrose); Penicillin concentration 4; lyophilized cells
[6] = added to antibiotic free milk, 25 min at 42°C + 5 min MTT
[7] = Penicillin Concentration 1 mIU/mL, lyophilized cells
[8] = Penicillin Concentration 2 mIU/mL, lyophilized cells
[9] = Penicillin Concentration 4 mIU/mL, lyophilized cells
[10] = Penicillin Concentration 7 mIU/mL, lyophilized cells
[11] = Penicillin Concentration 14 mIU/mL, lyophilized cells
[12] = dried (lyophilized) cells, 7 mIU/mL Penicillin G in milk
[13] = hypotonic MTT solution, Penicillin concentration 4, lyophilized cells
[14] = hypotonic MTT solution, Penicillin concentration 7, lyophilized cells
[15] = isotonic MTT solution (0.3M sucrose), Penicillin concentration 7, lyophilized cells
[16] = Penicillin G Concentration 16 mIU/mL in milk
[17] = Penicillin G Concentration 32 mIU/mL in milk

O=C(N[C@H](CO)[C@H](O)c1ccc([N+](=O)[O-])cc1)C(Cl)Cl [Chloramphenicol]
Sensitivity (lowest concentration causing visually detectable decrease in color) [1, 6]: 2.5 µg/mL

CC1(C)S[C@@H]2[C@H](NC(=O)Cc3ccccc3)C(=O)N2[C@H]1C(=O)O [Penicillin G]
Inhibition (%) ([2]; 7 mIU/mL Penicillin G, first incubation 10 min, MTT 5 min (total 15 min), lyophilized high-density cells): 7% | Inhibition (%) ([2]; 7 mIU/mL Penicillin G, first incubation 10 min, MTT 10 min (total 20 min), lyophilized high-density cells): 40% and 42% | Inhibition (%) ([2]; 7 mIU/mL Penicillin G, first incubation 15 min, MTT 5 min (total 20 min), lyophilized high-density cells): 21% | Inhibition (%) ([2]; 7 mIU/mL Penicillin G, first incubation 15 min, MTT 10 min (total 25 min), lyophilized high-density cells): 42% | Inhibition (%) ([2]; 7 mIU/mL Penicillin G, first incubation 20 min, MTT 5 min (total 25 min), lyophilized high-density cells): 77% | Inhibition (%) ([2]; 7 mIU/mL Penicillin G, first incubation 20 min, MTT 10 min (total 30 min), lyophilized high-density cells): 53% | Inhibition (%) ([2]; 7 mIU/mL Penicillin G, first incubation 25 min, MTT 5 min (total 30 min), lyophilized high-density cells): 62% | Inhibition (%) ([2]; 7 mIU/mL Penicillin G, first incubation 25 min, MTT 10 min (total 35 min), lyophilized high-density cells): 57% | Inhibition (%) [2, 7]: 17% | OD at 570 nm [2, 7]: 0.098 | Inhibition (%) [2, 8]: 32% | OD at 570 nm [2, 8]: 0.080 | Inhibition (%) [2, 9]: 56% | OD at 570 nm [2, 9]: 0.052 | Inhibition (%) [2, 10]: 74% | OD at 570 nm [2, 10]: 0.031 | Inhibition (%) [2, 11]: 80% | OD at 570 nm [2, 11]: 0.024 | % inhibition [2, 12]: 60% | OD 570 nm in 7 mIU/mL Penicillin Specimen [2, 12]: 0.062 | % inhibition ([2]; fresh cells, 7 mIU/mL Penicillin G in milk): 55% | OD 570 nm in 7 mIU/mL Penicillin Specimen ([2]; fresh cells, 7 mIU/mL Penicillin G in milk, 25 min at 42°C + 5 min MTT): 0.088 | % inhibition [2, 13]: 56% | OD at 570 nm [2, 13]: 0.052 | % inhibition [2, 14]: 74% | OD at 570 nm [2, 14]: 0.031 | OD at 570 nm ([2]; isotonic MTT solution (0.3M sucrose), Penicillin concentration 4, lyophilized cells): 0.113 | % inhibition [2, 15]: 34% | OD at 570 nm [2, 15]: 0.077 | concentration detectable in milk ([2]; lyophilized cells, butanol extraction, OD 570 nm): 1 mIU/mL | Sensitivity (lowest concentration causing visually detectable decrease in color) [1, 6]: 3.5 mIU/mL | % inhibition [3, 16]: 34% | OD at 570 nm [3, 16]: 0.250 | % inhibition [3, 17]: 59% | OD at 570 nm [3, 17]: 0.155 | % Inhibition with ([4]; hypertonic pre-incubation medium (0.8M sucrose)): 54% | % Inhibition with ([4]; isotonic pre-incubation medium (without sucrose)): 10% | % inhibition [5]: 3%

CN(C)[C@@H]1C(O)=C(C(N)=O)C(=O)[C@@]2(O)C(O)=C3C(=O)c4c(O)cccc4[C@@](C)(O)[C@H]3[C@H](O)[C@@H]12 [Oxytetracycline]
Sensitivity (lowest concentration causing visually detectable decrease in color) [1, 6]: 0.4 µg/mL

Polymyxin
Sensitivity (lowest concentration causing visually detectable decrease in color) [1, 6]: 10 µg/mL

CN(C)[C@@H]1C(O)=C(C(N)=O)C(=O)[C@@]2(O)C(O)=C3C(=O)c4c(O)cccc4[C@@](C)(O)[C@H]3C[C@@H]12 [Tetracycline]
Sensitivity (lowest concentration causing visually detectable decrease in color) [1, 6]: 0.2 µg/mL

CC1(C)S[C@@H]2[C@H](NC(=O)[C@H](N)c3ccccc3)C(=O)N2[C@H]1C(=O)O [Ampicillin]
Sensitivity (lowest concentration causing visually detectable decrease in color) [1, 6]: 0.002 µg/mL

Cc1onc(-c2ccccc2Cl)c1C(=O)N[C@@H]1C(=O)N2[C@@H]1SC(C)(C)[C@@H]2C(=O)O [Cloxacillin]
Sensitivity (lowest concentration causing visually detectable decrease in color) [1, 6]: 0.002 µg/mL

Nc1ccc(S(=O)(=O)Nc2ncccn2)cc1 [Sulfadiazine]
Sensitivity (lowest concentration causing visually detectable decrease in color) ([1]; test conducted in presence of 10 ug.mL trimethoprim, added to the milk specimen): 20 ug/mL^b

— patent publication EP0418113A2, “Microbiological assay kit and method for detecting antibacterial compounds” (ORGENICS LIMITED, priority 1989, dated 1991)
